According to patent US8377884B2, “Variants of C-type natriuretic peptides” (Biomarin Pharmaceutical Inc., priority 2007, dated 2013):
Like-named read-outs stand apart in the source and are kept apart here. Bridge positions count the residues as written; N and C are the ends. Ends that are not written are not given here. Peptide text beside a SMILES is read from it.

Experiments:
[1] = target: neutral endopeptidase (NEP) (Homo sapiens, UniProt P08473); experiment: In vitro neutral endopeptidase (NEP) cleavage assay; conditions: human, pH 7
Chain of neutral endopeptidase (NEP) (P08473 whole entry): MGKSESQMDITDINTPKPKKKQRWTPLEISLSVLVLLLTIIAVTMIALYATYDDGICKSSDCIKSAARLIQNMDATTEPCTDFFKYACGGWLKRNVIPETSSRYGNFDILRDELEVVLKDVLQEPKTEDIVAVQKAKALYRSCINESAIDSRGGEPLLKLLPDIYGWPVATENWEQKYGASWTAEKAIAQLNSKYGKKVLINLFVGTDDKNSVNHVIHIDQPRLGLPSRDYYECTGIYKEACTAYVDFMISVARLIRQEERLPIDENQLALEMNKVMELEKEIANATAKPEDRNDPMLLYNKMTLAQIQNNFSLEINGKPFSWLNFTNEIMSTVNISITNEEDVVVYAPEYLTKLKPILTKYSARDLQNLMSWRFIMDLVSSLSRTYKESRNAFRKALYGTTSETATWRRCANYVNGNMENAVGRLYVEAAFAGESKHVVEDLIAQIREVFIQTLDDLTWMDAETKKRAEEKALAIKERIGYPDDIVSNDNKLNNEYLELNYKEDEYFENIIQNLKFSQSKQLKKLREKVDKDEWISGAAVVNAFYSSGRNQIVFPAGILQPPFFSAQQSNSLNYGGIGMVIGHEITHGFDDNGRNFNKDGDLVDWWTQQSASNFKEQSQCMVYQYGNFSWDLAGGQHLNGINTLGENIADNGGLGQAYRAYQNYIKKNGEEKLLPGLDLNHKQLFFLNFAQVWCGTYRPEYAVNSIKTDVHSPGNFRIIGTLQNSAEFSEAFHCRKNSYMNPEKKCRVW
Method: To determine the effects of amino acid substitutions, amino acid extensions, backbone modifications, side chain modifications and PEGylation on the susceptibility of CNP variants to neutral endopeptidase (NEP) cleavage, peptide cleavage assays were carried out using an in vitro assay that monitored disappearance of the non-cleaved CNP variant.
Recombinant human NEP (1 ug/mL final concentration) was added to 100 uM CNP variant diluted in 0.1 M Tris, pH 7. The reaction mixture was incubated at 37° C. for various periods of time, and the reaction was quenched with EDTA (10 mM final) followed by heat denaturation. The reaction mixture was reduced and then the reaction products were analyzed using HPLC and mass spectroscopy. The half-life of the CNP variant was calculated based on the disappearance of intact CNP variant over time.

[2] = target: T1, NPR-B (Mus musculus, UniProt Q6VVW5); experiment: Stimulation of cGMP production in NIH3T3 cells; type: cell-based, Murine; conditions: for cGMP response relative to 1 uM CNP22 (%) at 0.01 µM: read-out: cGMP Response rel. to 1 uM CNP22, 10 nM; for cGMP response relative to 1 uM CNP22 (%) at 1 µM: read-out: cGMP Response rel. to 1 uM CNP22, 1 uM
T1 construct: Murine NIH3T3 cells express endogenously the CNP signaling receptor, NPR-B; endogenous in cells; host or cells: NIH3T3 (murine fibroblasts)
T1 sequence (Q6VVW5 17-1047): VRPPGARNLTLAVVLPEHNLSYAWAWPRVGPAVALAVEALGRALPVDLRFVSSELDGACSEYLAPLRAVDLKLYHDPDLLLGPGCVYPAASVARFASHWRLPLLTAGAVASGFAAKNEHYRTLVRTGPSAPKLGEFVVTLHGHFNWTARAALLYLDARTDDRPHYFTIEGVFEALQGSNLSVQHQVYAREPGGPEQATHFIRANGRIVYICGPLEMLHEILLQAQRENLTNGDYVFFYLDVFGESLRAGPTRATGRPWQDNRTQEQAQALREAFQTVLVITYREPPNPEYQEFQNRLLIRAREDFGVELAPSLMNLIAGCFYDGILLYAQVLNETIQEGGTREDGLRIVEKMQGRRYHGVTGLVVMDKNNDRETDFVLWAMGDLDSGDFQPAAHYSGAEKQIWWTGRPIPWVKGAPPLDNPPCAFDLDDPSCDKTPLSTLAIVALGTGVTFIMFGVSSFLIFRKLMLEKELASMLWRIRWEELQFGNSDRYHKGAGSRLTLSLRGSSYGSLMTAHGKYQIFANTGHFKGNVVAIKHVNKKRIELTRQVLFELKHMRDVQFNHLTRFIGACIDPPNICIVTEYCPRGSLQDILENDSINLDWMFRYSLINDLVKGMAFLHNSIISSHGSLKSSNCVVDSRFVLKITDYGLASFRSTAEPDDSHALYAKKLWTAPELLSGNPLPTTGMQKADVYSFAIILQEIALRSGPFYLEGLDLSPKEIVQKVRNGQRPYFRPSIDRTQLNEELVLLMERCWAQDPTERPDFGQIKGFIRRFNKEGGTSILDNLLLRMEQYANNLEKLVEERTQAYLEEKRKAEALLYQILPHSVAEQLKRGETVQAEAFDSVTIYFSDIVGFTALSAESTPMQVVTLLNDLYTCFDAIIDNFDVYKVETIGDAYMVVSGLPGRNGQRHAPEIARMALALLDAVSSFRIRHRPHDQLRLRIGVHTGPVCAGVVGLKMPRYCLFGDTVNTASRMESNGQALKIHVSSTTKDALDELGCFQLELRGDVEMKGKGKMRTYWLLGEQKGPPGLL

[3] = recombinant human neutral endopeptidase (NEP)
[4] = NIH3T3 cells, 10 nM natriuretic peptide, normalized to cell number and cGMP production with 1 uM wtCNP22
[5] = NIH3T3 cells, 1 uM natriuretic peptide, normalized to cell number and cGMP production with 1 uM wtCNP22

Compound | half-life at 100 uM [1, 3] [h] | cGMP response relative to 1 uM CNP22 (%) at 0.01 µM [2, 4] [%] | cGMP response relative to 1 uM CNP22 (%) at 1 µM [2, 5] [%] | half-life at 100 uM [1] [h] | cGMP response relative to 1 uM CNP22 (%) at 0.01 µM ([2]; NIH3T3, […]) [%] | cGMP response relative to 1 uM CNP22 (%) at 1 µM ([2]; NIH3T3, […]) [%] | cGMP Response rel. to 1 uM CNP22, 10 nM [2, 4] | cGMP Response rel. to 1 uM CNP22, 1 uM [2, 5]
CC[C@H](C)[C@@H]1NC(=O)[C@H](CCCNC(=N)N)NC(=O)[C@H](CC(=O)O)NC(=O)[C@H](CC(C)C)NC(=O)[C@H](CCCCN)NC(=O)[C@H](CC(C)C)NC(=O)[C@H]([C@@H](C)O)NC(=O)[C@H](Cc2ccccc2)NC(=O)[C@@H](NC(=O)CNC(=O)[C@H](CCCNC(=N)N)NC(=O)[C@H](CO)NC(=O)[C@H](CC(C)C)NC(=O)CN)CSSC[C@@H](C(=O)O)NC(=O)CNC(=O)[C@H](CC(C)C)NC(=O)CNC(=O)[C@H](CO)NC(=O)[C@H](CCSC)NC(=O)[C@H](CO)NC(=O)CNC1=O [AC] (H-GLSRGCFTLKLDRIGSMSGLGC-OH; disulfide 6-22 (inferred); N-terminus and C-terminus assumed) | 1.33 | 11 ± 2 | 66 ± 16 | – | – | – | – | –
CC[C@H](C)[C@@H]1NC(=O)[C@H](CCCNC(=N)N)NC(=O)[C@H](CC(=O)O)NC(=O)[C@H](CC(C)C)NC(=O)[C@H](CCCCN)NC(=O)[C@H](CC(C)C)NC(=O)CNC(=O)[C@H](Cc2ccccc2)NC(=O)[C@@H](NC(=O)CNC(=O)[C@H](CCCNC(=N)N)NC(=O)[C@H](CO)NC(=O)[C@H](CC(C)C)NC(=O)CNC(=O)[C@H](CCCNC(=N)N)NC(=O)[C@H](CCCNC(=N)N)NC(=O)[C@H](CC(N)=O)NC(=O)[C@H](C)NC(=O)CN)CSSC[C@@H](C(=O)O)NC(=O)CNC(=O)[C@H](CC(C)C)NC(=O)CNC(=O)[C@H](CO)NC(=O)[C@H](CCSC)NC(=O)[C@H](CO)NC(=O)CNC1=O [AY] (H-GANRRGLSRGCFGLKLDRIGSMSGLGC-OH; disulfide 11-27 (inferred); N-terminus and C-terminus assumed) | – | 59 ± 9 | 105 ± 20 | 1.08 | – | – | – | –
CC[C@H](C)[C@@H]1NC(=O)[C@H](CCCNC(=N)N)NC(=O)[C@H](CC(=O)O)NC(=O)[C@H](CC(C)C)NC(=O)[C@H](CCCCN)NC(=O)[C@H](CC(C)C)NC(=O)CNC(=O)[C@H](Cc2ccccc2)NC(=O)[C@@H](NC(=O)CNC(=O)[C@H](CCCNC(=N)N)NC(=O)[C@H](CO)NC(=O)[C@H](CC(C)C)NC(=O)CN)CSSC[C@@H](C(=O)O)NC(=O)CNC(=O)[C@H](CC(C)C)NC(=O)CNC(=O)[C@H](CO)NC(=O)[C@H](CCSC)NC(=O)[C@H](CO)NC(=O)CNC1=O [AH] (H-GLSRGCFGLKLDRIGSMSGLGC-OH; disulfide 6-22 (inferred); N-terminus and C-terminus assumed) | 1.33 | 59 | 121 | – | – | – | – | –
CC[C@H](C)[C@@H]1NC(=O)[C@H](CCCNC(=N)N)NC(=O)[C@H](CC(=O)O)NC(=O)[C@H](CC(C)C)NC(=O)[C@H](CCCCN)NC(=O)[C@H](CC(C)C)NC(=O)CNC(=O)[C@H](Cc2ccccc2)NC(=O)[C@@H](NC(=O)CNC(=O)[C@H](CCCCN)NC(=O)[C@H](CO)NC(=O)[C@H](CC(C)C)NC(=O)CNC(=O)CCOCCOCCOCCOCCOCCOCCOCCOCCOCCOCCOCCOCCNC(=O)CCCC[C@@H]2SC[C@@H]3NC(=O)N[C@@H]32)CSSC[C@@H](C(=O)O)NC(=O)CNC(=O)[C@H](CC(C)C)NC(=O)CNC(=O)[C@H](CO)NC(=O)[C@H](CCSC)NC(=O)[C@H](CO)NC(=O)CNC1=O [(PEO12)-Biotin-CNP22] | – | – | – | 2.33 | 19 | 81 | – | –
DLRVDTKSRAAWARLLQEHPNARKYKGANKKGLSKGCFGLKLDRIGSMSGLGC (disulfide 37-53) [BM] | – | 61 | 101 | > 2.67 | – | – | – | –
CC[C@H](C)[C@@H]1NC(=O)[C@H](CCCNC(=N)N)NC(=O)[C@H](CC(=O)O)NC(=O)[C@H](CC(C)C)NC(=O)[C@H](CCCCN)NC(=O)[C@H](CC(C)C)NC(=O)CNC(=O)[C@H](Cc2ccccc2)NC(=O)[C@@H](NC(=O)CNC(=O)[C@H](CCCCN)NC(=O)[C@H](CO)NC(=O)[C@H](CC(C)C)NC(=O)CNC(=O)[C@H](CCCCN)NC(=O)[C@@H]2CCCN2C(=O)[C@H](CC(N)=O)NC(=O)[C@H](C)NC(=O)CNC(=O)[C@H](CCCCN)NC(=O)[C@H](Cc2ccc(O)cc2)NC(=O)[C@H](CCCCN)NC(=O)[C@H](CCCNC(=N)N)NC(=O)[C@H](C)NC(=O)[C@H](CC(N)=O)NC(=O)[C@@H]2CCCN2C(=O)[C@H](Cc2c[nH]cn2)NC(=O)[C@H](CCC(=O)O)NC(=O)[C@H](CCC(N)=O)NC(=O)CN)CSSC[C@@H](C(=O)O)NC(=O)CNC(=O)[C@H](CC(C)C)NC(=O)CNC(=O)[C@H](CO)NC(=O)[C@H](CCSC)NC(=O)[C@H](CO)NC(=O)CNC1=O [CS] (H-GQEHPNARKYKGANPKGLSKGCFGLKLDRIGSMSGLGC-OH; disulfide 22-38 (inferred); N-terminus and C-terminus assumed) | – | 19 | 61 | > 2.67 | – | – | – | –
CC[C@H](C)[C@@H]1NC(=O)[C@H](CCCNC(=N)N)NC(=O)[C@H](CC(=O)O)NC(=O)[C@H](CC(C)C)NC(=O)[C@H](CCCCN)NC(=O)[C@H](CC(C)C)NC(=O)CNC(=O)[C@H](Cc2ccccc2)NC(=O)[C@@H](NC(=O)CNC(=O)[C@H](CCCCN)NC(=O)[C@H](CO)NC(=O)[C@H](CC(C)C)NC(=O)CNC(=O)[C@H](CCCCN)NC(=O)[C@H](CCCCN)NC(=O)[C@H](CC(N)=O)NC(=O)[C@H](C)NC(=O)CNC(=O)[C@H](CCCCN)NC(=O)[C@H](Cc2ccc(O)cc2)NC(=O)[C@H](CCCCN)NC(=O)[C@H](CCCNC(=N)N)NC(=O)[C@H](C)NC(=O)[C@H](CC(N)=O)NC(=O)[C@@H]2CCCN2C(=O)[C@H](Cc2c[nH]cn2)NC(=O)[C@H](CCC(=O)O)NC(=O)[C@@H](N)CCC(N)=O)CSSC[C@@H](C(=O)O)NC(=O)CNC(=O)[C@H](CC(C)C)NC(=O)CNC(=O)[C@H](CO)NC(=O)[C@H](CCSC)NC(=O)[C@H](CO)NC(=O)CNC1=O [BL] | – | – | – | > 2.67 | – | – | 43 ± 15 | 97 ± 27
CC[C@H](C)[C@@H]1NC(=O)[C@H](CCCNC(=N)N)NC(=O)[C@H](CC(=O)O)NC(=O)[C@H](CC(C)C)NC(=O)[C@H](CCCCN)NC(=O)[C@H](CC(C)C)NC(=O)CNC(=O)[C@H](Cc2ccccc2)NC(=O)[C@@H](NC(=O)CNC(=O)[C@H](CCC(=O)O)NC(=O)[C@H](CO)NC(=O)[C@H](CC(C)C)NC(=O)[C@@H](N)CCC(=O)O)CSSC[C@@H](C(=O)O)NC(=O)CNC(=O)[C@H](CC(C)C)NC(=O)CNC(=O)[C@H](CO)NC(=O)[C@H](CCSC)NC(=O)[C@H](CO)NC(=O)CNC1=O [AT] (H-ELSEGCFGLKLDRIGSMSGLGC-OH; disulfide 6-22 (inferred); N-terminus and C-terminus assumed) | 1 | 11 | 54 | – | – | – | – | –
